From US20250109134A1 (Ascentage Pharma (Suzhou) Co., Ltd., priority 2022, published 2025)
Structures can show the parent of a compound that is named as a salt.

Legend:
Assay type in all cases: physicochemical
[1] = Stability study, content and related substances (TRS, total impurity content) by HPLC; settings: for chemical stability (HPLC, TRS total impurity content): open, 60° C., RT/92.5% RH, RT/75% RH, 40° C./75% RH, up to 30 days
Procedure: In the present invention, the HPLC (high performance liquid chromatography) test parameters are set as follows:
Then, the sample flasks were opened to air (sealed with aluminum foil punctured with small holes) and placed in constant temperature and humidity cabinets at high temperature (60° C.), at room temperature and high humidity ([…]), at RT/75% RH, and at 40° C./75% RH for 30 days, respectively, […]

[2] = Stability study, solid form by XRPD after open storage at high temperature / high humidity; settings: for change in the crystalline form after storage (XRPD), physical stability: open, 60° C., RT/92.5% RH, RT/75% RH, 40° C./75% RH, 30 days
Procedure: In the present invention, the XRPD test parameters are set as follows:
Then, the sample flasks were opened to air (sealed with aluminum foil punctured with small holes) and placed in constant temperature and humidity cabinets at high temperature (60° C.), at room temperature and high humidity (RT/92.5% RH), at RT/75% RH, and at 40° C./75% RH for 30 days, respectively, and samples were taken at days 5, 10 and 30 for XRPD and HPLC detection.

[3] = Dynamic vapor sorption (DVS) hygroscopicity test; settings: for hygroscopic weight gain (DVS): 25° C. and 80% RH; for hygroscopicity (DVS), in words: 80% RH; for crystalline form before and after hygroscopic test (XRPD after DVS): XRPD of sample after DVS
Source text: In the present invention, the DVS test parameters are set as follows: […]

[4] = XRPD characterization (crystallinity), summary evaluation; settings: summary of forms
Source text: In the present invention, the XRPD test parameters are set as follows: […]

| Structure (SMILES) | chemical stability (HPLC, TRS total impurity content) [1] | change in the crystalline form after storage (XRPD), physical stability [2] | hygroscopic weight gain (DVS) [3] [%] | hygroscopicity (DVS), in words [3] | crystalline form before and after hygroscopic test (XRPD after DVS) [3] | Evaluation results: crystallinity [4] | further results |
| --- | --- | --- | --- | --- | --- | --- | --- |
| CC(C)N1Cc2cc(C(F)(F)F)ncc2-c2cnc(NCc3c(F)ccc4c3CCO4)n3cnc(c23)C1=O [crystalline form A of the hydrochloride salt of the compound] | good chemical stability | no change in the crystalline form | 0.31 | slight hygroscopicity | did not change | – | – |
| CC(C)N1Cc2cc(C(F)(F)F)ncc2-c2cnc(NCc3c(F)ccc4c3CCO4)n3cnc(c23)C1=O.CS(=O)(=O)O [Methanesulfonate salt Crystalline form A] | – | – | – | – | – | High crystallinity | – |
| CC(C)N1Cc2cc(C(F)(F)F)ncc2-c2cnc(NCc3c(F)ccc4c3CCO4)n3cnc(c23)C1=O [crystalline form A of the sulfate salt of the compound of fo] | – | no change in the crystalline form | 1.43 | slight hygroscopicity | did not change | – | – |
| CC(C)N1Cc2cc(C(F)(F)F)ncc2-c2cnc(NCc3c(F)ccc4c3CCO4)n3cnc(c23)C1=O [Crystalline form B] | – | – | – | – | – | high crystallinity | TRS(%) ([1]; 40° C./75RH %-5 d, open storage): 0.54%; TRS(%) ([1]; 40° C./75RH %- 10 d, open storage): 0.46%; TRS(%) ([1]; 40° C./75RH %- 30 d, open storage): 0.56%; TRS(%) ([1]; 60° C.-5 d, open storage): 0.52%; TRS(%) ([1]; 60° C.-10 d, open storage): 0.53%; TRS(%) ([1]; 60° C.-30 d, open storage): 0.62%; TRS(%) ([1]; Initial, TRS = total impurity content, HPLC): 0.89%; TRS(%) ([1]; RT/90RH %-5 d, open storage): 0.55%; TRS(%) ([1]; RT/90RH %-10 d, open storage): 0.56%; TRS(%) ([1]; RT/90RH %-30 d, open storage): 0.58%; Evaluation results: stability ([2]; summary of forms): Good stability |
| CC(C)N1Cc2cc(C(F)(F)F)ncc2-c2cnc(NCc3c(F)ccc4c3CCO4)n3cnc(c23)C1=O [crystalline form B of the compound of formula I] | good chemical stability | no change in the crystalline form | 0.84 | slight hygroscopicity | – | – | – |
| CC(C)N1Cc2cc(C(F)(F)F)ncc2-c2cnc(NCc3c(F)ccc4c3CCO4)n3cnc(c23)C1=O [crystalline form A of the compound of formula I] | good chemical stability | no change in the crystalline form | 0.44 | slight hygroscopicity | – | – | – |
| CC(C)N1Cc2cc(C(F)(F)F)ncc2-c2cnc(NCc3c(F)ccc4c3CCO4)n3cnc(c23)C1=O.Cc1ccc(S(=O)(=O)O)cc1 [p-toluenesulfonate Crystalline form A] | – | – | – | – | – | High crystallinity | – |
| CC(C)N1Cc2cc(C(F)(F)F)ncc2-c2cnc(NCc3c(F)ccc4c3CCO4)n3cnc(c23)C1=O [Crystalline form G] | – | – | – | – | – | High crystallinity | Evaluation results: hygroscopicity ([3]; summary of forms): slight hygroscopicity |
| CC(C)N1Cc2cc(C(F)(F)F)ncc2-c2cnc(NCc3c(F)ccc4c3CCO4)n3cnc(c23)C1=O [crystalline form A of the methanesulfonate salt of the compo] | – | no change in the crystalline form | 0.84 | slight hygroscopicity | did not change | – | – |
